In PubChem BioAssay AID248 (DTP/NCI, 2004):
Values joined by “and” are separate entries in the source; they are usually repeats but may differ in a detail not shown here. Identical values can stand only once. Inconclusive results and toxic doses are left out. Cut-off read from the data, not from the text of the source: active = T/C of 150% or more; inactive = T/C below 125%.

System: L1210 leukemia ip in BDF1 mice, survival T/C
Experiment: NCI In Vivo Anticancer Drug Screen. Data for tumor model L1210 Leukemia (intraperitoneal) in B6D2F1 (BDF1) mice
Conditions: endpoint: mean survival time, higher = longer survival
In short: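 Read-out is survival time, reported as the treated-group measurement over the vehicle-control measurement.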

Measured: T/C

C=C(CC)C(=O)OCC
inactive: dose: 100.0 mg/kg/injection, schedule: Q04DX003 (ip), vehicle: saline 105 % of control | dose: 200.0 mg/kg/injection, schedule: Q04DX003 (ip), vehicle: saline 94 % of control | dose: 400.0 mg/kg/injection, schedule: Q04DX003 (ip), vehicle: saline 96 % of control

Cc1ccc(N=N/C(=N\Nc2ccc(C)cc2)[N+](=O)[O-])cc1
inactive: dose: 75.0 mg/kg/injection, schedule: Q01DX001 (ip), vehicle: acetone 90 % of control | dose: 150.0 mg/kg/injection, schedule: Q01DX001 (ip), vehicle: acetone 94 % of control and 86 % of control and 89 % of control | dose: 300.0 mg/kg/injection, schedule: Q01DX001 (ip), vehicle: acetone 93 % of control and 87 % of control and 88 % of control

CC(C)CCCCc1c[nH]c(=O)[nH]c1=O
inactive: dose: 100.0 mg/kg/injection, schedule: Q01DX009 (ip), vehicle: saline with Tween-80 107 % of control | dose: 100.0 mg/kg/injection, schedule: Q04DX003 (ip), vehicle: saline with Tween-80 94 % of control | dose: 200.0 mg/kg/injection, schedule: Q01DX009 (ip), vehicle: saline with Tween-80 104 % of control | dose: 200.0 mg/kg/injection, schedule: Q04DX003 (ip), vehicle: saline with Tween-80 97 % of control | dose: 400.0 mg/kg/injection, schedule: Q01DX009 (ip), vehicle: saline with Tween-80 101 % of control | dose: 400.0 mg/kg/injection, schedule: Q04DX003 (ip), vehicle: saline with Tween-80 92 % of control

O=c1[nH]c2cc(F)ccc2o1
inactive: dose: 100.0 mg/kg/injection, schedule: Q01DX009 (ip), vehicle: Klucel (hydroxypropylcellulose) (HPC) 103 % of control | dose: 100.0 mg/kg/injection, schedule: Q04DX003 (ip), vehicle: Klucel (hydroxypropylcellulose) (HPC) 104 % of control | dose: 200.0 mg/kg/injection, schedule: Q01DX009 (ip), vehicle: Klucel (hydroxypropylcellulose) (HPC) 101 % of control | dose: 200.0 mg/kg/injection, schedule: Q04DX003 (ip), vehicle: Klucel (hydroxypropylcellulose) (HPC) 103 % of control | dose: 400.0 mg/kg/injection, schedule: Q01DX009 (ip), vehicle: Klucel (hydroxypropylcellulose) (HPC) 111 % of control | dose: 400.0 mg/kg/injection, schedule: Q04DX003 (ip), vehicle: Klucel (hydroxypropylcellulose) (HPC) 111 % of control
